Measured values: paper PMC8269059, “Glycyrrhizin Derivatives Suppress Cancer Chemoresistance by Inhibiting Progesterone Receptor Membrane Component 1” (Cancers, 2021)
Entries after “also recorded” stand apart in the source; their conditions may differ.

Assays:
HMGB1 = target: T1, HMGB1 (Homo sapiens, UniProt P09429); test: ITC binding to HMGB1; conditions: HMGB1 80 µM, compound 3 mM
T1 construct: human HMGB1 full-length cDNA was cloned from cDNA library of HCT116 cells; GST (N, cleaved yes); made in house; host or cells: E. coli BL21 (DE3)
T1 sequence (P09429 whole entry): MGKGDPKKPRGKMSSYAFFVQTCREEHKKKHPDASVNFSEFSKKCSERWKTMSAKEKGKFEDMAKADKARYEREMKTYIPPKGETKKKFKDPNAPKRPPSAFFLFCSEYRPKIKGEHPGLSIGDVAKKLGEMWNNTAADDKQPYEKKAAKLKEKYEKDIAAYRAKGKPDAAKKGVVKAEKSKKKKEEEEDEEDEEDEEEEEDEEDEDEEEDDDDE
From the text: (§1) Bacterial expression vectors pGEX-PGRMC1 (human PGRMC1 intracellular domain residues 43-195) and mammalian FLAG-tagged expression vector pCMV-FLAG-PGRMC1 (full-length) were constructed as described previously. Expression vectors for PGRMC1 point mutants were generated by site-directed mutagenesis with PCR. For construction of HMGB1 expression vector, human HMGB1 full-length cDNA was cloned from cDNA library of HCT116 cells using the primers (Forward: 5′-[…]-3′, Reverse: 5′-[…]-[…]-3′), digested with Bam HI and Sal I, and then ligated into pGEX6P1.
(§2) Expression vectors (pGEX-PGRMC1 (residues 43-195) or pGEX-HMGB1) were transformed into BL21 (DE3) competent E. coli cells, and the cells incubated in LB medium with ampicillin at 37 °C until the OD600 reached 0.8. Protein expression was induced by adding 1 mM isopropyl-β-thiogalactopyranoside (IPTG) and incubating at 37 °C for 4 h. […]
(§3) ITC experiments were performed at 298 K with ITC-Buffer (50 mM phosphate [pH 7.0]) using a MicroCal iTC200 (Malvern Panalytical, Malvern, UK). […] Binding isotherms were analyzed using SEDPHAT [35]. The binding of AG205 to apo- or heme-PGRMC1 (100 μM) was analyzed using a concentration of 3 mM containing 1% DMSO. […]

[1] = target: T2, interaction between PGRMC1 and EGFR (Homo sapiens, UniProt O00264); test: Co-immunoprecipitation of PGRMC1 and EGFR in HCT116 cells; assay type: cell-based; conditions: HCT116, FLAG-PGRMC1 co-IP, 12 h treatment
T2 construct: mammalian FLAG-tagged expression vector pCMV-FLAG-PGRMC1 (full-length); expressed in transfected cells; host or cells: HCT116 or HuH7
T2 sequence (O00264 whole entry): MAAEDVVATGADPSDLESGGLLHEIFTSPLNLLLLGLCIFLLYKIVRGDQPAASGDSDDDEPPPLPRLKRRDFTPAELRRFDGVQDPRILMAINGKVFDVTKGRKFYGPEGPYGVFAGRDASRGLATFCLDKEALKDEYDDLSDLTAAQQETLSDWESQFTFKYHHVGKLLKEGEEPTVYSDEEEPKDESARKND
Method: (§4) An expression vector of pCMV-3xFLAG-PGRMC1 or an empty vector was transfected into HCT116 cells or HuH7 cells using the transfection reagent Lipofectamine 2000 (Invitrogen). The cells were incubated overnight with either GL or GlucoGL. Cells were then lysed with NP40 lysis buffer (20 mM Tris-HCl [pH 7.5], 150 mM NaCl, and 1% NP40). The lysates were incubated with 10 μL of equilibrated anti-FLAG (M2) agarose for 60 min at room temperature. Bound proteins were washed three times and subjected to SDS-PAGE and visualized through western blotting using antibodies against FLAG, EGFR, and LDLR. For analysis of the endogenous PGRMC1-binding with FLAG-PGRMC1, HCT116 cells (1 × 10^7 cells) were treated with vehicle or 250 μM SA and/or 10 μM hemin for 48 h, and the cell lysates were co-immunoprecipitated with anti-FLAG (M2) agarose. Bound proteins (endogenous PGRMC1 and FLAG-tagged PGRMC1) were visualized through western blotting using antibody against PGRMC1.

[2] = target: T3, interaction between PGRMC1 and LDLR (Homo sapiens, UniProt O00264); test: Co-immunoprecipitation of PGRMC1 and LDLR in HCT116 cells; assay type: cell-based; conditions: HCT116, FLAG-PGRMC1 co-IP, 12 h treatment
T3 construct: mammalian FLAG-tagged expression vector pCMV-FLAG-PGRMC1 (full-length); expressed in transfected cells; host or cells: HCT116
T3 sequence (O00264 whole entry): as above
Method: as §4

HCT116 cells xenograft = test: HCT116 xenograft in nude mice; assay type: in vivo, mouse; conditions: i.p. twice a week, vs control; for Tumor volume, in combination with CDDP: CDDP 2 mg/kg plus GL 400 mg/kg (day 22) or GlucoGL 100 mg/kg (from day 15)
Method: All protocols for animal experiments in this study were approved by the Experimental Animal Committee of Keio University School of Medicine (approval number: 08024-(13), approval date: 30 September 2020). HCT116 cells (2 × 10^6 cells/mouse) with half of Matrigel (Corning, NY, USA) were transplanted subcutaneously into the flank of 7-week-old nude mice. Four days after the transplantation, tumor size was measured in three dimensions with calipers and grouped by tumor volume. CDDP (2 mg/kg), GL (400 mg/kg), or GlucoGL (100 mg/kg) were administered to the mice intraperitoneally, and the tumor volume was measured twice a week for 22 days.

apo-PGRMC1 = target: T4, apo-PGRMC1 (Homo sapiens, UniProt O00264); test: ITC binding to apo-PGRMC1; conditions: apo-monomer form
T4 construct: human PGRMC1 intracellular domain residues 43-195; GST (N, cleaved yes); made in house; host or cells: E. coli BL21 (DE3)
T4 sequence (O00264 43-195): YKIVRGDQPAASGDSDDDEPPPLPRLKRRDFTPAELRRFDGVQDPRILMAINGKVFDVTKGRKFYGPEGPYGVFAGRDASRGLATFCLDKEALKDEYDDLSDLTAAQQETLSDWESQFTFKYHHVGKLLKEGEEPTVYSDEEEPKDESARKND
From the text: as §1, §2, §3

PGRMC1 G108W = target: T5, PGRMC1 G108W (Homo sapiens, UniProt O00264, G108W); test: ITC binding of GL to PGRMC1 mutant G108W
T5 construct: human PGRMC1 intracellular domain residues 43-195; GST (N, cleaved yes); made in house; host or cells: E. coli BL21 (DE3)
T5 sequence (O00264 43-195 G108W): as the sequence (O00264 43-195) above, with G66W counted along it
From the text: as §1
(§5) ITC experiments were performed at 298 K with ITC-Buffer (50 mM phosphate [pH 7.0]) using a MicroCal iTC200 (Malvern Panalytical, Malvern, UK). GL derivatives were dissolved in […] and titrated into 100 μM apo-PGRMC1, heme-bound-PGRMC1, or HMGB1 protein. Titration was performed by injecting 2 µL of the syringe solution at intervals of 120 s. Binding isotherms were analyzed using SEDPHAT [35]. The binding of AG205 to apo- or heme-PGRMC1 (100 μM) was analyzed using a concentration of 3 mM containing 1% DMSO. The binding affinities of GL derivatives for HMGB1 (80 µM) were analyzed using a concentration of 3 mM.

PGRMC1 G111W = target: T6, PGRMC1 G111W (Homo sapiens, UniProt O00264, G111W); test: ITC binding of GL to PGRMC1 mutant G111W
T6 construct: human PGRMC1 intracellular domain residues 43-195; GST (N, cleaved yes); made in house; host or cells: E. coli BL21 (DE3)
T6 sequence (O00264 43-195 G111W): as the sequence (O00264 43-195) above, with G69W counted along it
From the text: as §1, §5

PGRMC1 K132V = target: T7, PGRMC1 K132V (Homo sapiens, UniProt O00264, K132V); test: ITC binding of GL to PGRMC1 mutant K132V
T7 construct: human PGRMC1 intracellular domain residues 43-195; GST (N, cleaved yes); made in house; host or cells: E. coli BL21 (DE3)
T7 sequence (O00264 43-195 K132V): as the sequence (O00264 43-195) above, with K90V counted along it
From the text: as §1, §5

PGRMC1 Q149F = target: T8, PGRMC1 Q149F (Homo sapiens, UniProt O00264, Q149F); test: ITC binding of GL to PGRMC1 mutant Q149F
T8 construct: human PGRMC1 intracellular domain residues 43-195; GST (N, cleaved yes); made in house; host or cells: E. coli BL21 (DE3)
T8 sequence (O00264 43-195 Q149F): as the sequence (O00264 43-195) above, with Q107F counted along it
From the text: as §1, §5

Structure (SMILES): CC1(C(=O)O)CCC2(C)CCC3(C)C(=CC(=O)C4C5(C)CCC(OC6OC(C(=O)O)C(O)C(O)C6OC6OC(CO)C(O)C(O)C6O)C(C)(C)C5CCC43C)C2C1 (stereo not drawn) [Glucoglycyrrhizin (GlucoGL), Glucoglycyrrhizin]
- KD for HMGB1 (HMGB1): weak binding
- Interaction between PGRMC1 and EGFR [1]: inhibited the interaction more potently
- Interaction between PGRMC1 and LDLR [2]: inhibited this interaction more potently
- Tumor volume, in combination with CDDP (HCT116 cells xenograft): significantly suppressed the tumor volume

Structure (SMILES): CC1(C)[C@@H](O[C@H]2O[C@H](C(=O)O)[C@@H](O)[C@H](O)[C@H]2O[C@@H]2O[C@H](C(=O)O)[C@@H](O)[C@H](O)[C@H]2O)CC[C@]2(C)[C@H]3C(=O)C=C4[C@@H]5C[C@@](C)(C(=O)O)CC[C@]5(C)CC[C@@]4(C)[C@]3(C)CC[C@@H]12 [Glycyrrhizin (GL), Glycyrrhizin]
- Binding to apo-PGRMC1 (apo-PGRMC1): No Binding; also recorded: not to the apo-monomer form
- Kd (HMGB1): 223 µM
- Interaction between PGRMC1 and EGFR [1]: inhibited
- Interaction between PGRMC1 and LDLR [2]: inhibited
- Tumor volume, administered individually (HCT116 cells xenograft; 22 days, CDDP 2 mg/kg, GL 400 mg/kg): no differences in tumor volume
- Tumor volume, in combination with CDDP (HCT116 cells xenograft): significantly smaller
- Kd (PGRMC1 G108W): 185 µM
- TΔS (PGRMC1 G108W): 1.58 K･kcal/mol
- ΔG (PGRMC1 G108W): -5.09 kcal/mol
- ΔH (PGRMC1 G108W): -3.51 kcal/mol
- Kd (PGRMC1 G111W): 108 µM
- TΔS (PGRMC1 G111W): 4.39 K･kcal/mol
- ΔH (PGRMC1 G111W): -1.86 kcal/mol
- Kd (PGRMC1 K132V): 84.6 µM
- TΔS (PGRMC1 K132V): 4.55 K･kcal/mol
- ΔG (PGRMC1 K132V): -5.56 kcal/mol
- ΔH (PGRMC1 K132V): -1.01 kcal/mol
- Kd (PGRMC1 Q149F): 403 µM
- TΔS (PGRMC1 Q149F): −10.62 K･kcal/mol
- ΔH (PGRMC1 Q149F): -14.37 kcal/mol
